{"source": "paper PMC9842534", "about": "(European Journal of Medicinal Chemistry, 2023)", "biological_target": "SARS-CoV-2 Spike RBD-ACE2 interaction (Severe acute respiratory syndrome coronavirus 2, UniProt P0DTC2)", "format": "binding, SARS-CoV-2 / human", "note": "Where a SMILES comes first, the peptide text is derived from it. Bridges are numbered along the chain shown (N, C = ends). [ ]: non-standard residue; d: D form. S5 = C=CCCC[C@](C)(N)C(=O)O", "data": [{"smiles": "CC(C)C[C@@H]1NC(=O)[C@H](CC(=O)O)NC(=O)[C@H](CCC(=O)O)NC(=O)[C@@](C)(NC(=O)[C@H](CCC(=O)O)NC(=O)[C@@H](N)Cc2c[nH]cn2)CCC/C=C\\CCC[C@@](C)(C(=O)N[C@@H](Cc2ccc(O)cc2)C(=O)N[C@@H](CCC(N)=O)C(N)=O)NC1=O", "note": "[Compound 6] (H-HE[S5]EDL[S5]YQ-NH2; staple (Z) 3-7; N-terminus and C-terminus assumed)", "values": [{"measurement": "inhibition of the spike RBD-ACE2 interaction (in words)", "result": "significant inhibitory activity"}]}]}
